Experimental data from US12384780B2, “PARP1 inhibitors and uses thereof” (XinThera, Inc., priority 2022, dated 2025).

Key:
DLD-1 parental cells = experiment: Cell growth inhibition assay (CellTiter-Glo), DLD-1 parental; format: cell-based; details: Homo sapiens, DLD-1, 168 h; 50 cells/well, 7 days, CellTiter Glo 2.0; read-out: DLD-1 parental pEC50 (converted)
Method: (§1) Cell proliferation was measured through the cell viability assay using DLD-1 BRCA2(−/−) and parental isogenic pair and MDA-MB-436 (mutated BRCA1) cell lines. The CellTiter-Glo (CTG) based cell viability assay is designed to determine the number of viable cells in the culture because of compound effect, by quantifying ATP, which indicates the presence of metabolically active cells.
(§2) DLD-1 BRCA2(−/−) and parental isogenic pair were cultured in RPMI 1640 supplemented with […] (FBS), and […] cells were cultured in DMEM supplemented with 10% FBS. Both were cultured at 37° C. with […]. Invention compounds were distributed to the 384 well plate (Corning, 3764) using Echo acoustic liquid handler to form a 1:3 serially diluted final concentration with top dose of 10 or 30 μM. The cells were seeded into the plate in the density of 50 cells/well (DLD-1 parental), 200 cells/well (DLD-1 BRCA2−/−), or 500 cells/well (MDA-MB-436). After a short spun, the cells were cultured in a well moisturized incubator at 37° C. with 5% CO2 for 7 days without disturbance. The cell viability was measured by CellTiter Glo 2.0 assay kit (Promega, G9243), and growth inhibition rate was calculated and plotted against final compound concentration, and the data were fitted in Xfit to generate IC50 values.

DLD-1 BRCA2(−/−) cells = experiment: Cell growth inhibition assay (CellTiter-Glo), DLD-1 BRCA2(−/−); format: cell-based; details: 200 cells/well, 7 days, CellTiter Glo 2.0; for EC50: Homo sapiens, DLD-1, 168 h, read-out: DLD-1 BRCA2(−/−) pEC50 (converted)
Method: as §1, §2

[1] = tested on: MDA-MB-436 (mutated BRCA1) cells; experiment: Cell growth inhibition assay (CellTiter-Glo), MDA-MB-436; format: cell-based; details: 500 cells/well, 7 days, CellTiter Glo 2.0; for EC50: Homo sapiens, MDA-MB-436, 168 h, read-out: MDA-MB-436 pEC50 (converted)
Method: as §1, §2

PARP2 = target: T1, PARP2 (Homo sapiens, UniProt Q9UGN5); experiment: Biochemical fluorescent polarization (FP) assay, displacement of PARPi-FL, PARP2; format: binding; details: 20 nM protein, 3 nM PARPi-FL, 4 h at room temperature; read-out: FP PARP2 pIC50 (converted)
T1 construct: made in house
Method: (§3) Compounds were characterized using an assay measuring the displacement of a commercially available fluorescently labeled PARP 1/2 inhibitor (PARPi-FL, Tocris Biosciences, #6461) as exemplified in assays performed in WO2014/064149 and WO2021/013735A1. The assay was performed utilizing the following method: Compounds were dissolved in DMSO an Echo550 liquid handler was utilized to make serial dilations in the desired concentration range in Optiplate-384F plates. 100% DMSO was used for the high (with protein) and low (without protein) control samples. 20 nL of compound or DMSO alone was added to individual assay plate wells. PARP1 and PARP2 protein were expressed, purified, and diluted in assay buffer containing 50 mM Tris pH 8.0, 0.001% Triton X-100, 10 mM MgCl2, 150 mM NaCl to a final concentration of 20 nM. The PARPi-FL was then added at a final concentration of 3 nM. The assay plate was centrifuged at 1000 rpm for 1 min and incubated for 4 h at room temperature. […] [formula]

PARP1 = target: T2, PARP1 (Homo sapiens, UniProt P09874); experiment: Biochemical fluorescent polarization (FP) assay, displacement of PARPi-FL, PARP1; format: binding; details: 20 nM protein, 3 nM PARPi-FL, 4 h at room temperature; for IC50: read-out: FP PARP1 pIC50 (converted)
T2 construct: made in house
Method: as §3

T1 sequence (Q9UGN5 whole entry): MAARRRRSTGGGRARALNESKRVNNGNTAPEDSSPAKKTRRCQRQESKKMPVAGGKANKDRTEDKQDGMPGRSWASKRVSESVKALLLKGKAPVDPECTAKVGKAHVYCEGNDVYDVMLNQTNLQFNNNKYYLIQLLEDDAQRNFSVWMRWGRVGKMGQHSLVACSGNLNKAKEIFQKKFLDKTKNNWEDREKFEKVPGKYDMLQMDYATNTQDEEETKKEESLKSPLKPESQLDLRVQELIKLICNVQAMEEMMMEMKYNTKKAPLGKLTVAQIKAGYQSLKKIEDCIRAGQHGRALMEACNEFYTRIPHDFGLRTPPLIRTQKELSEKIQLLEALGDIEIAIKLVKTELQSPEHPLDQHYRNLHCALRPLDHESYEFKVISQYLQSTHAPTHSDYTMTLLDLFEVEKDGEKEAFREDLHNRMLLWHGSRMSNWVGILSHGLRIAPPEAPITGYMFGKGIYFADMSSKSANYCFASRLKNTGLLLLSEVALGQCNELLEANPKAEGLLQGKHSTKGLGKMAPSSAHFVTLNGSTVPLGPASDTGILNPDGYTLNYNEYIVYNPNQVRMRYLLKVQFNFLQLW
T2 sequence (P09874 whole entry): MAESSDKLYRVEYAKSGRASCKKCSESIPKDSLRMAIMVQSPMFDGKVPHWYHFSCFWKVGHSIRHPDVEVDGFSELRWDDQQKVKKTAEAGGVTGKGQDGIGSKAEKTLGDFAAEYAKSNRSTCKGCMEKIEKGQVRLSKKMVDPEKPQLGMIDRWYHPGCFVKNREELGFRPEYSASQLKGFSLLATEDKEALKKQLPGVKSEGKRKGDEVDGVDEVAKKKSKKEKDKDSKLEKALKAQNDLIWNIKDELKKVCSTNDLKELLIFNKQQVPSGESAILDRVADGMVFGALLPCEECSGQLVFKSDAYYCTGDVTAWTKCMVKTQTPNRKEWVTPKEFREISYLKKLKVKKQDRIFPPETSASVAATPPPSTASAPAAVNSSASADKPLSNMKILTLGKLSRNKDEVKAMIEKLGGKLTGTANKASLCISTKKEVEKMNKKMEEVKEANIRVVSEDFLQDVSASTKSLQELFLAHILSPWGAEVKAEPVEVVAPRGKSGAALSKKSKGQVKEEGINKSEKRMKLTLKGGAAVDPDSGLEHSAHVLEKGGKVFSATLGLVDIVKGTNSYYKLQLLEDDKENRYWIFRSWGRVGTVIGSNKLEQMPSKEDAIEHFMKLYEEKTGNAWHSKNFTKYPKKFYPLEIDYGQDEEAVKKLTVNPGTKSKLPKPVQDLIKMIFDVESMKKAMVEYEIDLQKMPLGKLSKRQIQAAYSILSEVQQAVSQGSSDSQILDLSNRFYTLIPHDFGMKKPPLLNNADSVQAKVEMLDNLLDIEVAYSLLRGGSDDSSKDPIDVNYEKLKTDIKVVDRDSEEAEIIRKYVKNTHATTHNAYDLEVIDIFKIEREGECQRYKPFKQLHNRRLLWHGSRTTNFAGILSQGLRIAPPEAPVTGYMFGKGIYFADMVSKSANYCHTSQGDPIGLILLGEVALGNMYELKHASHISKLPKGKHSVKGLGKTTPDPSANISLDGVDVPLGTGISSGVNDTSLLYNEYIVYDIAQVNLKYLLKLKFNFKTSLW

SMILES | EC50 (DLD-1 BRCA2(−/−) cells) [nM] | EC50 [1] [nM] | IC50 (PARP2) [nM] | IC50 (PARP1) [nM] | DLD-1 BRCA2(−/−) pEC50 (DLD-1 BRCA2(−/−) cells) | MDA-MB-436 pEC50 [1] | FP PARP1 pIC50 (PARP1) | EC50 (DLD-1 parental cells) [nM]
CCc1cc2ncc(CN3CCN(c4ccc(C#N)nc4)CC3)cc2[nH]c1=O [Example 3, 5-{4-[(7-ethyl-6-oxo-5H-1,5-naphthyridin-3-yl)methyl]piperazin-1-yl}pyridine-2-carbonitrile] | 3.16 | 2.51 |  |  |  |  |  | > 31600
Cc1cc2ncc(CN3CCN(c4ccc(C#N)cn4)CC3)cc2[nH]c1=O [Example 6] | 2.51 | 2.51 | 5010 | 5.01 |  |  |  | > 31600
CCc1cc2ncc(CN3CCN(c4ccc(C#N)c(F)c4)CC3)cc2[nH]c1=O [Example 38] | 0.631 | 0.501 | 501 | 5.01 |  |  |  | 
C[C@@H]1CN(Cc2cnc3cc(C4CC4)c(=O)[nH]c3c2)CCN1c1ccc(F)cn1 [Example 22] | 126 | 158 | 12600 | 7.94 |  |  |  | 
Cc1c(Cl)c(=O)[nH]c2cc(CN3CCN(c4ccc(C#N)cn4)CC3)cnc12 [Example 36, 6-{4-[(7-chloro-8-methyl-6-oxo-5H-1,5-naphthyridin-3-yl)methyl]piperazin-1-yl}pyridine-3-carbonitrile] | 1.26 | 1 | 2000 | 5.01 |  |  |  | 
Cc1cc2ncc(CN3CCN(c4ncc(F)cc4F)CC3)cc2[nH]c1=O [Example 26] | > 1000 | > 1000 | > 100000 | > 100 |  |  |  | 
CCc1cc2ncc(CN3CCN(c4ccc(C#N)nc4)[C@@H]4C[C@@H]43)cc2[nH]c1=O (single isomer, unassigned) [Example 15] | 7.94 | 5.01 | 10000 | 5.01 |  |  |  | 
CCc1cc2ncc(CN3CCN(c4ccc(Br)cn4)CC3)cc2[nH]c1=O [Example 7] | 6.31 | 6.31 | > 100000 | 25.1 |  |  |  | 
Cc1cc2ncc([C@H](C)N3CCN(c4ccc(C#N)cn4)[C@H](C)C3)cc2[nH]c1=O (single isomer, unassigned) [Example 29] | 63.1 | 79.4 | > 100000 | 6.31 |  |  |  | 
CCc1nc2c(F)cc(CN3CCN(c4ccc(C#N)cn4)CC3)cc2[nH]c1=O [Example 5, 6-(4-((2-ethyl-8-fluoro-3-oxo-3,4-dihydroquinoxalin-6-yl)methyl)piperazin-1-yl)nicotinonitrile] | 3.98 | 3.98 | > 100000 |  |  |  | 8.5 | 
Cc1cc2ncc(CN3CCN(c4ccc(C#N)cn4)[C@H]4C[C@H]43)cc2[nH]c1=O (single isomer, unassigned) [Example 19] | 200 | 158 | > 100000 | 6.31 |  |  |  | 
Cc1cc2ncc(CN3CCN(c4ccc(F)cc4C#N)CC3)cc2[nH]c1=O [Example 35] | 3.16 | 2.51 | 63100 | 10 |  |  |  | 
Cc1cc2ncc(CN3CCN(c4ccc(C#N)nc4C(F)F)CC3)cc2[nH]c1=O [Example 31] | 15.8 | 6.31 | > 100000 | 6.31 |  |  |  | 
CCc1cc2ncc(CN3CCN(c4ccc(C#N)cn4)CC3)cc2[nH]c1=O [Example 10] | 0.794 | 0.794 | 5010 | 5.01 |  |  |  | 
N#Cc1ccc(N2CCN(Cc3cnc4cc(C5CC5)c(=O)[nH]c4c3)[C@H]3C[C@H]32)nc1 (single isomer, unassigned) [Example 20] | 50.1 | 39.8 | 2510 | 5.01 |  |  |  | 
Cc1cc2ncc([C@@H](C)N3CCN(c4ccc(C#N)cn4)[C@H](C)C3)cc2[nH]c1=O (single isomer, unassigned) [Example 28, rel-6-[(2R)-2-methyl-4-[(1R*)-1-(7-methyl-6-oxo-5H-1,5-naphthyridin-3-yl)ethyl]piperazin-1-yl]pyridine-3-carbonitrile] | 63.1 | 63.1 | > 100000 | > 100 |  |  |  | 
Cc1cc2ncc(CN3CCN(c4ncc(C#N)cc4F)CC3)cc2[nH]c1=O [Example 30] | > 1000 | > 1000 | > 100000 | 15.8 |  |  |  | 
CCc1cc2ncc(CN3CCN(c4ccc(C#N)cn4)[C@H](C)C3)cc2[nH]c1=O [Example 21] | 7.94 | 12.6 | 1260 | 5.01 |  |  |  | 
Cc1cc2ncc(CN3CCN(c4cc(F)c(C#N)cc4F)CC3)cc2[nH]c1=O [Example 13] | 5.01 | 3.98 | > 100000 | 5.01 |  |  |  | 
Cc1c(C(F)F)c(=O)[nH]c2cc(CN3CCN(c4ccc(C#N)cn4)CC3)cnc12 [Example 42, 6-(4-{[7-(difluoromethyl)-8-methyl-6-oxo-5H-1,5-naphthyridin-3-yl]methyl}piperazin-1-yl)pyridine-3-carbonitrile] | 2 | 1 | 316 | 50.1 |  |  |  | 

Second part, led by results:

EC50 (DLD-1 BRCA2(−/−) cells) [nM] | EC50 [1] [nM] | IC50 (PARP2) [nM] | IC50 (PARP1) [nM] | DLD-1 BRCA2(−/−) pEC50 (DLD-1 BRCA2(−/−) cells) | MDA-MB-436 pEC50 [1] | FP PARP1 pIC50 (PARP1) | SMILES | EC50 (DLD-1 parental cells) [nM]
 |  | 39800 | 10 | 7.4 | 7.8 |  | N#Cc1ccc(N2CCN(Cc3cnc4cc(C5CCCO5)c(=O)[nH]c4c3)CC2)nc1 (single isomer, unassigned) [Example 69, 6-(4-{[6-oxo-7-(oxolan-2-yl)-5H-1,5-naphthyridin-3-yl]methyl}piperazin-1-yl)pyridine-3-carbonitrile] | 
2 | 1.58 | > 100000 | 5.01 |  |  |  | N#Cc1ccc(N2CCN(Cc3cnc4cc(Cl)c(=O)[nH]c4c3)CC2)cc1 [Example 66] | 
3.16 | 2.51 | 6310 | 5.01 |  |  |  | Cc1cc2ncc(CN3CCN(c4ccc(C#N)cc4)CC3)cc2[nH]c1=O [Example 43] | 
2.51 | 2 | 50100 | 5.01 |  |  |  | N#Cc1ccc(N2CCN(Cc3cnc4cc(Cl)c(=O)[nH]c4c3)CC2)nc1 [Example 57] | 20000
6.31 | 7.94 | 50100 | 10 |  |  |  | Cc1nc2ccc(CN3CCN(c4ccc(C#N)cn4)CC3)cc2[nH]c1=O [Example 84] | 
39.8 | 25.1 | 79400 | 12.6 |  |  |  | N#Cc1ccc(N2CCN(Cc3cnc4cc(C5CCCO5)c(=O)[nH]c4c3)CC2)nc1 (single isomer, unassigned) [Example 68, 6-(4-{[6-oxo-7-(oxolan-2-yl)-5H-1,5-naphthyridin-3-yl]methyl}piperazin-1-yl)pyridine-3-carbonitrile] | 
7.94 | 5.01 | 12600 | 10 |  |  |  | Cc1cc2c(F)cc(CN3CCN(c4ccc(C#N)cn4)CC3)cc2[nH]c1=O [Example 79] | 
7.94 | 7.94 | 15800 | 12.6 |  |  |  | Cc1cc2ncc(CN3CCN(c4cc(F)c(F)cn4)CC3)cc2[nH]c1=O [Example 58] | 
1.26 | 1 | > 100000 | 7.94 |  |  |  | Cc1cc2ncc(CN3CCN(c4ccc(C#N)nc4Cl)CC3)cc2[nH]c1=O [Example 55] | 
1 | 1 | 1260 | 3.98 |  |  |  | N#Cc1ccc(N2CCN(Cc3cnc4cc(C(F)F)c(=O)[nH]c4c3)CC2)nc1 [Example 48, 6-(4-{[7-(difluoromethyl)-6-oxo-5H-1,5-naphthyridin-3-yl]methyl}piperazin-1-yl)pyridine-3-carbonitrile] | 
